Reference: PubChem BioAssay (NCI)
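Values below derive from 48-hour exposures of cells grown in 96-well plates, with endpoints linearly interpolated between the two concentrations bracketing the appropriate inhibition level. Definition used: TGI = concentration required for complete inhibition of growth.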

Columns and labels:
Assay in all cases: NCI tumour cell line growth inhibition, 48 h
[1] = system: A549 NSCLC
[2] = system: K-562 leukemia
[3] = system: LOX IMVI melanoma
[4] = system: MDA-N
[5] = system: MOLT-4 leukemia
[6] = system: OVCAR-3 ovarian
[7] = system: PC-3 prostate
[8] = system: RPMI-8226 leukemia
[9] = system: RXF 393 renal
[10] = system: SW-620 colon
[11] = system: T-47D breast

COC(=O)Nc1nc2ccc(S(=O)(=O)Nc3ccccn3)cc2[nH]1
TGI [1]: > 100 µM | TGI [2]: 75.9 µM | TGI [3]: > 100 µM | TGI [4]: > 100 µM | TGI [5]: 64 µM | TGI [6]: > 100 µM | TGI [7]: > 100 µM | TGI [8]: 40.6 µM | TGI [9]: > 100 µM | TGI [10]: 66.6 µM | TGI [11]: > 100 µM

O[C@@H]1C[C@H](Cl)c2c(Cl)sc(Cl)c21
TGI [1]: > 100 µM | TGI [2]: > 100 µM | TGI [3]: > 100 µM | TGI [4]: > 100 µM | TGI [5]: > 100 µM | TGI [6]: > 100 µM | TGI [7]: > 100 µM | TGI [8]: > 100 µM | TGI [9]: > 100 µM | TGI [10]: > 100 µM | TGI [11]: > 100 µM

Cn1c2ccc(F)cc2c2ccc3c(c21)C(=O)C=CC3=O
TGI [1]: > 100 µM | TGI [2]: > 36.4 µM | TGI [3]: 22.8 µM | TGI [4]: 27.7 µM | TGI [5]: 13.2 µM | TGI [6]: 19.6 µM | TGI [7]: 19.3 µM | TGI [8]: 33.4 µM | TGI [9]: 10.5 µM | TGI [10]: 8.54 µM | TGI [11]: 9 µM

Cc1cc2cc3cc(C)c(N)cc3nc2cc1N
TGI [1]: 2.07 µM | TGI [2]: 3.28 µM | TGI [3]: 2.11 µM | TGI [4]: 2.93 µM | TGI [5]: 0.894 µM | TGI [6]: 1.85 µM | TGI [7]: 6.84 µM | TGI [8]: 1.31 µM | TGI [9]: 2.47 µM | TGI [10]: 1.6 µM | TGI [11]: 2.43 µM

Clc1ccc(CCNC2(c3cc4ccccc4s3)CCCCC2)cc1Cl
TGI [1]: > 100 µM | TGI [2]: 36.7 µM | TGI [3]: 35.6 µM | TGI [4]: > 100 µM | TGI [5]: 37.9 µM | TGI [6]: 49.2 µM | TGI [7]: > 100 µM | TGI [8]: 32.1 µM | TGI [9]: 36.7 µM | TGI [10]: > 100 µM | TGI [11]: 46 µM

CCn1c2nc(=O)n(CCCCCCCCSC(c3ccccc3)(c3ccccc3)c3ccccc3)c(=O)c-2nc2ccccc21
TGI [2]: > 100 µM | TGI [3]: > 100 µM | TGI [4]: > 100 µM | TGI [5]: 24.6 µM | TGI [6]: > 100 µM | TGI [7]: > 100 µM | TGI [8]: > 100 µM | TGI [9]: > 100 µM | TGI [10]: > 100 µM | TGI [11]: > 100 µM

CC(=O)OCC1OC(n2cnc3nc(Br)[nH]c(=O)c32)C(OC(C)=O)C1OC(C)=O (stereo unspecified)
TGI [1]: > 100 µM | TGI [2]: > 100 µM | TGI [3]: > 100 µM | TGI [4]: > 100 µM | TGI [5]: > 100 µM | TGI [6]: > 100 µM | TGI [7]: > 100 µM | TGI [8]: > 100 µM | TGI [9]: > 100 µM | TGI [10]: > 100 µM | TGI [11]: > 100 µM

COc1ccccc1NC(=S)N=Nc1c(O)[nH]c2ccccc12
TGI [1]: > 100 µM | TGI [2]: > 100 µM | TGI [3]: > 100 µM | TGI [4]: > 100 µM | TGI [5]: > 100 µM | TGI [6]: > 100 µM | TGI [7]: > 100 µM | TGI [8]: > 100 µM | TGI [9]: > 100 µM | TGI [10]: > 100 µM | TGI [11]: > 100 µM

O=C1/C(=C/c2ccc(O)cc2)CCCC1CN1CCCCC1 (stereo unspecified)
TGI [1]: 31.9 µM | TGI [2]: > 24.4 µM | TGI [3]: 3.09 µM | TGI [4]: 10.8 µM | TGI [5]: 4.82 µM | TGI [6]: 14.9 µM | TGI [7]: 10 µM | TGI [8]: > 100 µM | TGI [9]: 27.1 µM | TGI [10]: 3.8 µM | TGI [11]: 5.21 µM

Cc1ncc([N+](=O)[O-])n1CC[N+](C)([O-])CCCCn1ccnc1[N+](=O)[O-] (stereo unspecified)
TGI [1]: > 100 µM | TGI [2]: > 100 µM | TGI [3]: > 100 µM | TGI [4]: > 100 µM | TGI [5]: > 100 µM | TGI [6]: > 100 µM | TGI [7]: > 100 µM | TGI [8]: > 100 µM | TGI [9]: > 100 µM | TGI [10]: > 100 µM | TGI [11]: > 100 µM

COC(=O)c1c(O)ccc2c1c1cc3ccccc3cc1n2Cc1cc(OC)cc(OC)c1
TGI [1]: > 100 µM | TGI [2]: > 100 µM | TGI [3]: > 100 µM | TGI [4]: 3.72 µM | TGI [5]: > 100 µM | TGI [6]: 2.45 µM | TGI [7]: > 32.6 µM | TGI [8]: > 26.3 µM | TGI [9]: > 26.5 µM | TGI [10]: > 100 µM | TGI [11]: > 63.4 µM

CC(C)NC(=O)OCc1c(COC(=O)NC(C)C)c(-c2ccc[n+](COC(=O)Cc3ccccc3)c2)n2c1CCC2
TGI [1]: > 100 µM | TGI [2]: > 100 µM | TGI [3]: > 100 µM | TGI [4]: > 100 µM | TGI [5]: > 100 µM | TGI [6]: > 100 µM | TGI [7]: > 100 µM | TGI [8]: > 100 µM | TGI [9]: 67.3 µM | TGI [10]: 50.5 µM | TGI [11]: > 100 µM

CC(=O)O[C@H]1C(=O)[C@@]2(C)[C@H]([C@H](OC(=O)c3ccccc3)[C@]3(O)C[C@H](OC(=O)[C@H](O)[C@@H](NC(=O)c4ccccc4)c4ccc5ccccc5c4)C(C)=C1C3(C)C)[C@]1(OC(C)=O)CO[C@@H]1C[C@@H]2O
TGI [1]: > 42.1 µM | TGI [2]: 2.05 µM | TGI [3]: 6.59 µM | TGI [4]: 0.0202 µM | TGI [5]: 1.09 µM | TGI [7]: > 50 µM | TGI [8]: 1.87 µM | TGI [9]: 1.77 µM | TGI [10]: > 50 µM | TGI [11]: > 50 µM

Fc1ccc(-c2sc(-c3ccsc3)cc2Cc2ccsc2)cc1
TGI [1]: > 10 µM | TGI [2]: > 10 µM | TGI [3]: > 10 µM | TGI [4]: > 10 µM | TGI [5]: > 10 µM | TGI [7]: > 10 µM | TGI [8]: > 10 µM | TGI [9]: > 10 µM | TGI [10]: > 10 µM | TGI [11]: > 10 µM

Cc1nnc(N)nc1/C=C\c1ccc(Cl)cc1Cl
TGI [1]: > 100 µM | TGI [2]: > 100 µM | TGI [3]: > 100 µM | TGI [4]: > 100 µM | TGI [5]: > 100 µM | TGI [7]: > 100 µM | TGI [8]: > 100 µM | TGI [9]: > 100 µM | TGI [10]: 51.3 µM | TGI [11]: > 100 µM
